# Assay results taken from US7935722B2 (Eli Lilly and Company, priority 2005, dated 2011).
# Like-named read-outs stand apart in the source and are kept apart here.
# What was measured:
# [1] = molecular target: T1, human AR (androgen receptor) (Homo sapiens, UniProt P10275); test: Steroid hormone nuclear receptor binding assay, AR binding
# T1 construct: expressed in transfected cells; host or cells: 293 cells (293-AR lysate)
# T1 sequence (P10275 1-920): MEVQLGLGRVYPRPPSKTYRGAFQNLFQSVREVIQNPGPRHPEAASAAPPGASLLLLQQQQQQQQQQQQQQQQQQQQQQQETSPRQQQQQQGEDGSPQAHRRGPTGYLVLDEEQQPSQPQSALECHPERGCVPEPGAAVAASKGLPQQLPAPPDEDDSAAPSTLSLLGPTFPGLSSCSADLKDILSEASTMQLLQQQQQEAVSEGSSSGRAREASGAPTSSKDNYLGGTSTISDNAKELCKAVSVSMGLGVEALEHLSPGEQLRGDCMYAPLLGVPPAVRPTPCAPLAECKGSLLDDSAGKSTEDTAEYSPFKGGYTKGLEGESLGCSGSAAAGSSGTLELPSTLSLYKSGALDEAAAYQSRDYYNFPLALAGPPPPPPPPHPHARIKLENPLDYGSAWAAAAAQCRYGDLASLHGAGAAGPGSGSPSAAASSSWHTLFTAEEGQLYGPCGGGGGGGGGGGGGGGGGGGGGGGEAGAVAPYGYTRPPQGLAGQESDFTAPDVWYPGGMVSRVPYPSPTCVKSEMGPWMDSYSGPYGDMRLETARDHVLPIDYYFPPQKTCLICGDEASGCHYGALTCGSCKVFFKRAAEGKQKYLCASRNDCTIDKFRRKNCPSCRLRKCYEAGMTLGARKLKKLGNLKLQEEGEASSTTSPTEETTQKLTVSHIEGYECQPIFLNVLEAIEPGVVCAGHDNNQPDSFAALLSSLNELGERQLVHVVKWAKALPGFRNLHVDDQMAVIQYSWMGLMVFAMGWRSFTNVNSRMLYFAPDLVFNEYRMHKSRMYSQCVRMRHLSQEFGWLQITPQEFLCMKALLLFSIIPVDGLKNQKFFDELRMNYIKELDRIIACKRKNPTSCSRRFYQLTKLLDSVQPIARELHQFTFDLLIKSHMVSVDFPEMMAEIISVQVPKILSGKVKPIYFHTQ
# Protocol: Cell lysates from 293 cells overexpressing human GR (glucocorticoid receptor), AR (androgen receptor), MR (mineralocorticoid receptor) or PR (progesterone receptor) are used for competition binding assays to determine Ki values for test compounds. […] Competing compounds are added at various concentrations ranging from about 0.01 nM to 10 μM. Non-specific binding is determined in the presence of 500 nM dexamethasone for GR binding, 500 nM aldosterone for MR binding, or 500 nM methyltrienolone for AR and PR binding. The binding reaction (140 μl) is incubated for overnight at 4° C., then 70 μl of cold charcoal-dextran buffer (containing per 50 ml of assay buffer, 0.75 g of charcoal and 0.25 g of dextran) is added to each reaction. Plates are mixed 8 minutes on an orbital shaker at 4° C. Plates are then centrifuged at 3,000 rpm at 4° C. for 10 minutes. An aliquot of 120 μl of the mix is transferred to another 96-well plate and 175 μl of Wallac Optiphase “Hisafe 3” scintillation fluid is added to each well. Plates are sealed and shaken vigorously on an orbital shaker. After an incubation of 2 hrs, plates are read in a Wallac Microbeta counter. […] The Kd for ^3H-dexamethasone for GR binding, ^3H-methyltrienolone for AR binding, ^3H-aldosterone for MR binding, or ^3H-methyltrienolone for PR binding, is determined by saturation binding. The IC50 values for test compounds are converted to Ki using Cheng-Prusoff equation and the Kd determined by saturation binding assay. […]
# [2] = molecular target: T2, human androgen receptor (AR) (Homo sapiens, UniProt P10275); test: C2C12 AR/ARE reporter assay; format: cell-based
# T2 construct: expressed in transfected cells; host or cells: mouse myoblast C2C12 cells, transiently co-transfected
# T2 sequence (P10275 1-920): T1 sequence (P10275 1-920)
# Protocol: As an indicator of agonist activity in muscle tissue, the C2C12 AR/ARE reporter assay is performed. Briefly, mouse myoblast C2C12 cells are co-transfected using FuGENE™. […] Cells are transfected in T150 cm^2 flasks in DMEM media with 4% or 10% Fetal Bovine Serum […]. After a 5 hour incubation, transfected cells are trypsinized, plated in 96 well dishes in DMEM media containing 10% charcoal-stripped FBS, incubated for 2 h and then exposed to various concentrations of test compounds ranging from about 0.01 nM to 10 μM. After 48 h of incubations with compounds, cells are lysed and luciferase activity is determined using standard techniques. Data is fit to a 4 parameter-fit logistics to determine EC50 values. The % efficacy is determined versus maximum stimulation obtained with 10 nM methyltrienolone. […]
# [3] = C2C12, read-out: C2C12 % Efficacy
# [4] = average of n trials, read-out: AR binding Ki
# [5] = C2C12 AR/ARE reporter assay, average of n trials, read-out: C2C12 EC50
# [6] = C2C12 AR/ARE reporter assay, average of n trials, read-out: C2C12 % Efficacy
Structure (SMILES),Ki [1],EC50 [2],"Emax [2, 3]","Ki [1, 4]","C2C12 % Efficacy ([2]; C2C12 AR/ARE reporter assay, average of n trials)","EC50 [2, 5]","Emax [2, 6]"
"COc1ccc2c(c1)c1c(n2Cc2ccccc2Cl)CCC(NC(=O)C(C)C)C1 (stereo not drawn) [Example 69, N-[9-(2-Chloro-benzyl)-6-methoxy-2,3,4,9-tetrahydro-1H-carbazol-3-yl]-isobutyramide]",34.1 nM,213 nM,63.3%,–,–,–,–
"COc1ccc2c(c1)c1c(n2Cc2cccc(F)c2)CCC(NC(=O)C(C)C)C1 (stereo not drawn) [Example 79, N-[9-(3-fluoro-benzyl)-methoxy-2,3,4,9-tetrahydro-1H-carbazol-3-yl]-isobutyramide]",–,–,–,28.2 nM,85.7%,16.4 nM,–
"CC(C)C(=O)N[C@@H]1CCc2c(c3cc(-c4nncs4)ccc3n2Cc2cccc(F)c2)C1 [Example 127, (R)-N-[9-(3-Fluorobenzyl)-6-[1,3,4]thiadiazole-2-yl-2,3,4,9-tetrahydro-1H-carbazol-3-yl]isobutyramide]",–,–,–,10.4 nM,–,21 nM,72.2%
CC(C)C(=O)NC1CCc2c(c3cc(Cl)ccc3n2Cc2cccc(C(F)(F)F)c2)C1 (stereo not drawn) [Example 83],29.5 nM,85.1 nM,93.1%,–,–,–,–
"CC(C)C(=O)N[C@@H]1CCc2c(c3cc(C#N)ccc3n2Cc2ccccn2)C1 [Example 161, (R)-N-(6-cyano-9-pyridin-2-ylmethyl-2,3,4,9-tetrahydro-1H-carbazol-3-yl)-isobutyramide]",6.8 nM,3.1 nM,95.7%,–,–,–,–
COc1cccc2c3c(n(Cc4ccccc4)c12)CCC(NC(=O)C(C)C)C3 (stereo not drawn) [Example 76],478 nM,1710 nM,58.1%,–,–,–,–
"Cc1nc(Cn2c3c(c4cc(C#N)ccc42)C[C@@H](NC(=O)C(C)C)CC3)cs1 [Example 152, (S)-N-[6-cyano-9-(2-methyl-thiazol-4-ylmethyl)-2,3,4,9-tetrahydro-1H-carbazol-3-yl]-isobutyramide]",208 nM,409 nM,61.1%,–,–,–,–
COc1ccc2c(c1)c1c(n2Cc2ccc(Cl)cc2)CCC(NC(=O)C(C)C)C1 (stereo not drawn) [Example 71],82.5 nM,402 nM,40.7%,–,–,–,–
CC(C)C(=O)NC1CCc2c(c3cc(-c4ccncc4)ccc3n2Cc2cccc(F)c2)C1 (stereo not drawn) [Example 134],–,–,–,380 nM,–,365 nM,37.6%
CC(C)C(=O)N[C@@H]1CCc2c(c3cc(C(=O)O)ccc3n2Cc2cccc(F)c2)C1 [Example 188],–,–,–,952 nM,–,794 nM,82.4%
"CC(C)C(=O)NC1CCc2c(c3cc(C#N)ccc3n2Cc2ccccc2[N+](=O)[O-])C1 (stereo not drawn) [Example 108, N-[6-Cyano-9-(2-nitro-benzyl)-2,3,4,9-tetrahydro-1H-carbazol-3-yl]-isobutyramide]",57.3 nM,718 nM,58.4%,–,–,–,–
"CC(C)C(=O)NC1CCc2c(c3cc(C=O)ccc3n2Cc2cccc(F)c2)C1 (stereo not drawn) [Example 197, N-[9-(3-Fluoro-benzyl)-6-formyl-2,3,4,9-tetrahydro-1H-carbazol-3-yl]-isobutyramide]",4.2 nM,26.8 nM,147%,–,–,–,–
CC(C)C(=O)NC1CCc2c(c3cc(-c4ccc(N)nc4)ccc3n2Cc2cccc(F)c2)C1 (stereo not drawn) [Example 142],–,–,–,31.8 nM,–,23.7 nM,61.8%
CC(C)C(=O)NC1CCc2c(c3cc(-c4cncnc4)ccc3n2Cc2cccc(F)c2)C1 (stereo not drawn) [Example 137],16.2 nM,17.5 nM,79.4%,–,–,–,–
"CC(=O)c1ccc2c(c1)c1c(n2Cc2cccc(F)c2)CC[C@@H](NC(=O)C(C)C)C1 [Example 191, (R)-N-[6-Acetyl-9-(3-fluoro-benzyl)-2,3,4,9-tetrahydro-1H-carbazol-3-yl]-isobutyramide]",3.3 nM,1.2 nM,91.2%,–,–,–,–
"CC(C)C(=O)NC1CCc2c(c3cc(Cl)ccc3n2Cc2ccccc2O)C1 (stereo not drawn) [Example 101, N-[6-Chloro-9-(2-hydroxy-benzyl)-2,3,4,9-tetrahydro-1H-carbazol-3-yl]-isobutyramide]",5.2 nM,4.1 nM,65.3%,–,–,–,–
"COc1ccccc1Cn1c2c(c3cc(C#N)ccc31)CC(NC(=O)C(C)C)CC2 (stereo not drawn) [Example 105, N-[6-Cyano-9-(2-methoxy-benzyl)-2,3,4,9-tetrahydro-1H-carbazol-3-yl]-isobutyramide]",7.7 nM,30.7 nM,97.5%,–,–,–,–
CC(C)C(=O)NC1CCc2c(c3cc(Cl)ccc3n2Cc2cccc(Br)c2)C1 (stereo not drawn) [Example 81],11.3 nM,94 nM,81.9%,–,–,–,–
"COc1ccc2c(c1)c1c(n2Cc2ccccc2)CCC(NC(=O)C(C)C)C1 (stereo not drawn) [Example 67, N-(9-Benzyl-6-methoxy-2,3,4,9-tetrahydro-1H-carbazol-3-yl)-isobutyramide]",6.2 nM,18.6 nM,96.9%,–,–,–,–
CN(C)C(=O)NC1CCc2c(c3cc(OC(F)(F)F)ccc3n2Cc2cccc(F)c2)C1 (stereo not drawn) [Example 169],–,–,–,8.3 nM,–,6.5 nM,76.8%
CC(C)C(=O)NC1CCc2c(c3cc(-c4cccnn4)ccc3n2Cc2cccc(F)c2)C1 (stereo not drawn) [Example 138],–,–,–,47.3 nM,–,31.1 nM,86.8%
"CC(C)C(=O)NC1CCc2c(c3c(Cl)c(C#N)ccc3n2Cc2cccc(F)c2)C1 (stereo not drawn) [Example 117, N-[5-Chloro-6-cyano-9-(3-fluoro-benzyl)-2,3,4,9-tetrahydro-1H-carbazol-3-yl]-isobutyramide]",4.5 nM,12 nM,76.7%,–,–,–,–
O=C(NC1CCc2c(c3cc(OC(F)(F)F)ccc3n2Cc2cccc(F)c2)C1)C1CC1 (stereo not drawn) [Example 167],7.8 nM,13.7 nM,82.4%,–,–,–,–
"CC(C)C(=O)NC1CCc2c(c3cc(Cl)ccc3n2Cc2ccc(O)cc2)C1 (stereo not drawn) [Example 103, N-[6-Chloro-9-(4-hydioxy-benzyl)-2,3,4,9-tetrahydro-1H-carbazol-3-yl]-isobutyramide]",–,–,–,51.4 nM,–,293 nM,32.8%
COc1ccc2c(c1)c1c(n2Cc2ccccc2OC)CCC(NC(=O)C(C)C)C1 (stereo not drawn) [Example 72],–,–,66.4%,–,–,–,–
COc1ccc(Cn2c3c(c4cc(OC)ccc42)CC(NC(=O)C(C)C)CC3)cc1 (stereo not drawn) [Example 74],–,–,22.6%,–,–,–,–
COC(=O)c1cccc(Cn2c3c(c4cc(Cl)ccc42)CC(NC(=O)C(C)C)CC3)c1 (stereo not drawn) [Example 84],–,–,32.9%,–,–,–,–
"CC(C)C(=O)NC1CCc2c(c3cc(C#N)ccc3n2Cc2cccc([N+](=O)[O-])c2)C1 (stereo not drawn) [Example 88, N-[6-cyano-9-(3-nitro-benzyl)2,3,4,9-tetrahydro-1H-carbazol-3-yl]-isobutyramide]",–,–,96.1%,–,–,–,–
COc1cccc(Cn2c3c(c4cc(F)ccc42)CC(NC(=O)C(C)C)CC3)c1 (stereo not drawn) [Example 10],–,–,40.4%,–,–,–,–
COc1ccc2c(c1)c1c(n2Cc2ccc(F)cc2)CCC(NC(=O)C(C)C)C1 (stereo not drawn) [Example 80],–,–,59.9%,–,–,–,–
